Measured values from patent publication US10188107B2 (Heinrich Heine Universität Düsseldorf, priority 2013, dated 2019).

Molecular target: T1, PEP carboxylase from F. trinervia (C4 PEPC) (Flaveria trinervia, UniProt P30694)
T1 construct: histidine tag; made in house; host or cells: E. coli
T1 sequence (P30694 1-966): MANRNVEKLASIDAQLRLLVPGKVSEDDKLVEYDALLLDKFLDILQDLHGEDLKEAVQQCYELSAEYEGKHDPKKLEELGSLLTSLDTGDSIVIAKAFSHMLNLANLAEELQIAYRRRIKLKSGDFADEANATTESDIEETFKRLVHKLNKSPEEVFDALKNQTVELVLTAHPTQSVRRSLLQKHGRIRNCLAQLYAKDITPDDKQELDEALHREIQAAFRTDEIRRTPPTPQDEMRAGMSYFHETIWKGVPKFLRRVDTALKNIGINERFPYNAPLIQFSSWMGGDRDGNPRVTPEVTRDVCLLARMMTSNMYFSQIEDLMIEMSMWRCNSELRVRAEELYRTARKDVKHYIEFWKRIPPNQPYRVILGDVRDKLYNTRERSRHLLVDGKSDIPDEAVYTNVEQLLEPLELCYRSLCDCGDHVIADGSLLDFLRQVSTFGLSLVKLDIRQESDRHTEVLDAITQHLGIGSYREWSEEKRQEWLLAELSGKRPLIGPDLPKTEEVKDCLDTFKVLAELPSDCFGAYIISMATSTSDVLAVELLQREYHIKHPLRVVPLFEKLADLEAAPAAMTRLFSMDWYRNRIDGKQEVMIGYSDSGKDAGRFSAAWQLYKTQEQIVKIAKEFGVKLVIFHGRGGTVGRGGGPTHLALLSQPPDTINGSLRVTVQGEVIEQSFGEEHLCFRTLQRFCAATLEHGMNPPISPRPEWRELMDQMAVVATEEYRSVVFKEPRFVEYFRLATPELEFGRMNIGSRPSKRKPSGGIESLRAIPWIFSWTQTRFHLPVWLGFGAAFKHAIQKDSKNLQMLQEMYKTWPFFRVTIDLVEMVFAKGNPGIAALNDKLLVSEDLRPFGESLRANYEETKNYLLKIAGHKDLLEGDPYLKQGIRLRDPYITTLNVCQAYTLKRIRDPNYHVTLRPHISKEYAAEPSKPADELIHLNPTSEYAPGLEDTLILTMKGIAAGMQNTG
Experiment: Spectrophotometric coupled assay with malate dehydrogenase, C4 PEP carboxylase
Assay type: biochemical
Conditions: range of concentrations, triplicate; C3 PEPC activity compared at the C4 IC50 concentration (figure legend)
Text: How to determine the activity of a PEP carboxylase is well known in the art. E.g, the formation of oxaloacetate can be determined spectrophotometrically, e.g., in a malate dehydrogenase coupled system. The reaction velocity can be measured as a decrease in A340 resulting from the oxidation of NADH.
Inhibition of purified PEP carboxylases from F. pringlei and F. trinervia by compounds selected from the VDS was monitored by a spectrophotometric coupled assay with malate dehydrogenase which reduces the oxaloacetate formed by PEP carboxylase to malate. The simultaneous oxidation of NADH is followed at 340 nm with standard optical equipment. The concentration of the inhibitors selected from the VDS was varied in the coupled assay to determine the half maximal inhibitory concentration (IC50).

**Q.** For `O=C(O)c1cc(/C=C/c2cc(O)ccc2O)ccc1O` [1-(3′-carboxy-4′-hydroxyphenyl)-2-(2,5-dihydroxyphenl(ethene)], which “Inhibition of a C4-PEPC” value is on record?
**A.** Selective inhibition

**Q.** Which “Inhibition of a C4-PEPC” value does the source give for `COc1cc2ncc(-c3ccc(O)c(O)c3)nc2cc1OC` [2-(3,4-Dihydroxyphenyl)-6,7-dimethoxyquinoxaline] here?
**A.** Inhibition

**Q.** Which “Inhibition of a C4-PEPC” value does the source give for `O=C(/C=C/c1ccc(O)c(O)c1)c1ccc(O)cc1O` [butein] here?
**A.** Selective inhibition

**Q.** With catechin as the molecule, how does the “Inhibition of a C4-PEPC” value read?
**A.** Inhibition

Molecular target: pyruvate phosphate dikinase (PPDK)
Experiment: not given
Conditions: isolated enzyme; read-out: half maximal inhibitory concentration (IC50); cited from earlier work

**Q.** Which IC50 does the source give for `C/C=C(\C)c1cc(O)c(C)c2c1Oc1cc(O)cc(C)c1C(=O)O2` [unguinol] here?
**A.** 40 µM

System: PEP carboxylase from C4 plant Amaranthus viridis
Experiment: not given
Conditions: cited from earlier work

**Q.** With `O=c1c(O)c(-c2ccc(O)c(O)c2)oc2cc(O)ccc12` [fisetin] as the molecule, how does the “inhibition of PEP carboxylase from Amaranthus viridis” value (shortened to “inhibition of PEP carboxylase”) read?
**A.** inhibited

**Q.** With `O=c1c(O)c(-c2ccc(O)cc2)oc2cc(O)cc(O)c12` [kaempferol] as the molecule, how does the “inhibition of PEP carboxylase” value read?
**A.** inhibited

**Q.** Which “inhibition of PEP carboxylase” value does the source give for `O=c1c(O)c(-c2ccc(O)cc2O)oc2cc(O)cc(O)c12` [morin] here?
**A.** inhibited

**Q.** With `O=c1c(O)c(-c2cc(O)c(O)c(O)c2)oc2cc(O)cc(O)c12` [myricetin] as the molecule, how does the “inhibition of PEP carboxylase” value read?
**A.** inhibited

**Q.** For `O=c1c(O)c(-c2ccc(O)c(O)c2)oc2cc(O)cc(O)c12` [quercetin], which “inhibition of PEP carboxylase” value is on record?
**A.** inhibited

**Q.** Which “inhibition of PEP carboxylase” value does the source give for baicalein/baicalin here?
**A.** inhibited
